Results: patent publication US9012420B2, “Aptamer for chymase, and use thereof” (Ribomic Inc., priority 2009, dated 2015)
Oligonucleotides are written 5' to 3', each unit as a sugar letter and its base; * is a phosphorothioate linkage, no mark a phosphodiester; rarer units and linkages stand in square brackets, end groups in braces. Plain capitals give the bases only. r = 2'-OH (RNA); f = 2'-fluoro

Legend:
[1] = molecular target: T1, chymase (recombinant, manufactured by SIGMA) (Homo sapiens, UniProt P23946); assay: Chymase inhibitory activity using synthetic substrate Suc-Ala-Ala-Pro-Phe-MCA; assay type: biochemical
T1 construct: purchased SIGMA; host or cells: yeast
T1 sequence (P23946 22-247): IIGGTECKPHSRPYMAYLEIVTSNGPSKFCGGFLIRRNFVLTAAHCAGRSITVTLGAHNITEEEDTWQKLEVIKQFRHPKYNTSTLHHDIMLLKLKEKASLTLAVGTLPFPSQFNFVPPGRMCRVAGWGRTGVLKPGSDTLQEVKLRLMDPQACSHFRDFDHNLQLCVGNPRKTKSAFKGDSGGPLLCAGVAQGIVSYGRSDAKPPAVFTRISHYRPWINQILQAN
Method: A first method employs a synthetic substrate. A useful chymase substrate is Suc-Ala-Ala-Pro-Phe-MCA (4-methylcoumaryl-7-amide group) (manufactured by Peptide Institute, Inc.), which contains the 4-amino acid peptide “Ala-Ala-Pro-Phe”, a standard substrate for chymotrypsin-like proteases.
The assay is performed using a 96-well plate (F16 Black Maxisorp Fluoronunc, manufactured by Nunc), with a reaction mixture volume of 100 μL, in a buffer solution (solution C; see Example 2 below). First, each nucleic acid is prepared in solution C to obtain 50 μL solutions. After 10 μL of the 1 mM substrate prepared in solution C is added, the plate is set to the microplate reader SpectraMax190 (manufactured by Molecular Devices Corporation), and incubated at 37° C. for 5 minutes. Separately, 0.05 μg of chymase (recombinant, manufactured by SIGMA) is diluted in solution C, and 40 μL of this dilution is incubated at 37° C. for 5 minutes. The chymase solution is added to the mixture of the nucleic acid and substrate to initiate an enzyme reaction. The plate containing the reaction mixture is set to the microplate reader SpectraMax190 (manufactured by Molecular Devices Corporation), and examined for time-dependent changes in the fluorescence intensity at 37° C. for 5 minutes (excitation wavelength 380 nm, detection wavelength 460 nm). A linear approximation of the increase in the fluorescence of the AMC (7-amino-4-methylcoumarine) released from the substrate by chymase activity is generated, and its slope is taken as the initial reaction velocity. For control, samples are treated and analyzed in the same manner in two cases: use of a nucleic acid pool containing a random sequence of 30 or 40 nucleotides (negative control), and use of chymostatin, a known chymotrypsin-like serine protease inhibitor (positive control). Taking the initial reaction velocity without the nucleic acid and inhibitor as a 100% enzyme activity, the inhibitory rate for each test substance is calculated, and the inhibitor concentration required to cause a 50% inhibition of the enzyme activity (IC50) is determined.
Whether the nucleic acids shown by SEQ ID NO: 4-20, 22-34, and 38-48 inhibit the enzyme activity of chymase was determined as described below. The chymase substrate used was Suc-Ala-Ala-Pro-Phe-MCA (manufactured by Peptide Institute, Inc.), which contains the 4-amino-acid peptide Ala-Ala-Pro-Phe, a standard substrate for chymotrypsin-like proteases. Here, Suc is a protecting succinyl group, and MCA is a 4-methylcoumaryl-7-amide group; upon cleavage of the C-terminal side of phenylalanine, AMC (7-amino-4-methylcoumarine) is released. By detecting the fluorescence of this AMC, the enzyme activity of chymase can be determined. The assay was performed using a 96-well plate (F16 Black Maxisorp Fluoronunc, manufactured by Nunc), with a reaction mixture volume of 100 μL, in solution C as a buffer solution. First, each nucleic acid was serially diluted to 0.0027-2 μM concentrations in solution C to obtain 50 μL solutions. After 10 μL of the 1 mM substrate prepared in solution C was added thereto, the plate was set to the microplate reader SpectraMax190 (manufactured by Molecular Devices Corporation), and incubated at 37° C. for 5 minutes. Separately, 0.05 μg (or 0.005 μg) of chymase (recombinant, manufactured by SIGMA) was diluted in solution C to obtain a 40 μL chymase solution, and incubated at 37° C. for 5 minutes. The chymase solution was added to the mixture of the nucleic acid and substrate to initiate an enzyme reaction. The final chymase concentration in the reaction mixture was 16.7 nM (or 1.67 nM), the final substrate concentration being 100 μM. The plate containing the reaction mixture was set to the microplate reader SpectraMax190 (manufactured by Molecular Devices Corporation), and examined for time-dependent changes in the fluorescence intensity at 37° C. for 5 minutes (or 30 minutes) (excitation wavelength 380 nm, detection wavelength 460 nm). […]

[2] = molecular target: T1, chymase (recombinant, manufactured by SIGMA); assay: Surface plasmon resonance (Biacore T100), chymase immobilized on CM5 chip, nucleic acid injected as analyte; assay type: binding; design: key to Binding activity as determined using Biacore: ++: a sequence that binds to chymase significantly more strongly than the negative control 40N; +: a sequence that binds to chymase equivalently compared with the negative control 40N; key to binding activity using Biacore: ++: significant binding to chymase than SEQ ID NO: 58 which is a negative control; +: similar binding level as SEQ ID NO: 58 which is a negative control; details: for binding activity using Biacore: Table 5, same manner as Example 4, compared with SEQ ID NO: 58; for Binding activity as determined using Biacore: Table 4, about 4000 RU chymase immobilized, nucleic acid 0.3 μM, solution C, compared with 40N
Method: In another method, chymase is first immobilized onto a sensor chip, the amount immobilized being about 4000 RU. 20 μL of an aptamer solution for analyte, prepared at 0.01 μg/μL, is injected, and the binding of the aptamer to chymase is detected. An RNA containing a random nucleotide sequence of 30 or 40 nucleotides is used as a negative control.
Whether these nucleic acids bind to chymase was determined by the surface plasmon resonance method. Measurements were taken using Biacore T100 (manufactured by GE Healthcare) as described below. About 4000 RU of chymase (recombinant, manufactured by SIGMA) was immobilized on the sensor chip surface of a CM5 chip, using an amine coupling kit. 20 μL of each nucleic acid, prepared at 0.3 μM, as an analyte was injected at a flow rate of 20 μL/min. Solution C was used as a running buffer. The method of evaluation used was the same as Example 1.
All nucleic acids of SEQ ID NO: 58-68 were prepared by chemical synthesis. Whether these nucleic acids are bound to chymase was assessed by surface plasmon resonance method in the same manner as in Example 4. The inhibitory activity on chymase was measured in the same manner as in Example 3.
All nucleic acids of SEQ ID NOs: 73-79, 56(8), 80, 56(10), 81, 56(13)-56(14), 83-87 were prepared by chemical synthesis. Whether these nucleic acids are bound to chymase was assessed by surface plasmon resonance method in the same manner as in Example 4.
All nucleic acids of SEQ ID NO: 88-120, 121, 69, 122, 123, 70-72, 124-131 were prepared by chemical synthesis. Whether these nucleic acids are bound to chymase was assessed by surface plasmon resonance method in the same manner as in Example 4.

chymase = molecular target: T2, chymase (Homo sapiens, UniProt P23946); assay: Surface plasmon resonance (Biacore T100), aptamer immobilized on SA chip, chymase injected as analyte; assay type: binding; design: key: ++: a sequence that binds to chymase significantly more strongly than the negative control 40N; +: a sequence that binds to chymase equivalently compared with the negative control 40N; details: Table 1; about 1000 RU nucleic acid immobilized, chymase 0.2 μM analyte, running buffer solution A; compared with 40N
T2 sequence (P23946 22-247): T1 sequence (P23946 22-247)
Method: Binding strength is measured using Biacore T100 (manufactured by GE Healthcare). In a method of measurement, the aptamer is first immobilized onto a sensor chip, the amount immobilized being about 1000 RU. 20 μL of a chymase solution for analyte, prepared at 0.2 μM, is injected, and the binding of chymase to the aptamer is detected. An RNA comprising a random nucleotide sequence of 30 or 40 nucleotides is used as a negative control.
The binding activities against chymase of the nucleic acids shown by SEQ ID NO: 4-20 and 22-34 were determined by the surface plasmon resonance method using Biacore T100 (manufactured by GE Healthcare). The sensor chip used was the SA chip, which had streptavidin immobilized thereon. Bound thereto was about 1500 RU of a 16-nucleotide Poly dT with biotin bound to the 5′ end thereof. […] 20 μL of chymase for analyte, prepared at 0.2 μM, was injected. Solution A was used as a running buffer.
The binding activities against chymase of the nucleic acids shown by SEQ ID NO: 38-48 were evaluated by the surface plasmon resonance method. In the evaluations for SEQ ID NO: 38-48, measurements were taken in the same manner as Example 1. Solution C was used as a running buffer.

[3] = Table 5, same manner as Example 3, mean value of two measurements
[4] = Table 4, same manner as Example 3, mean value for 2 to 3 measurements
[5] = Table 3, substrate 100 μM, solution C, 37° C., mean value for 2 to 3 measurements

Question: Which IC50 [1, 3] does the source give for “66 (GGGUUAGAUCGAGUUAAAAACCC; listed as RNA, chemistry not fully specified) [compound 66]” here?
Answer: > 1000 nM

Question: What about the “binding activity using Biacore” value [2] of the same molecule?
Answer: +

Question: With “62 (GGGUUGGAUAGAGUUAAGAACCC; 2'-fluoro at CU, RNA at AG, backbone not given here) [compound 62]” as the molecule, how does the IC50 [1, 3] read?
Answer: 29 ± 4 nM

Question: And the “binding activity using Biacore” value [2]?
Answer: ++

Question: What does the source list for “50 (GGCAUUCUACAGAUAGAGAUAAAGUAGAAUUUAAC; 2'-fluoro at CU, RNA at AG, backbone not given here) [compound 50]”?
Answer: IC50 [1, 4]: 138 ± 93 nM; Binding activity as determined using Biacore [2]: ++

Question: Which results are given for “57 (GCAUUUGAGAUAGAUUUAAACAAACGC; 2'-fluoro at CU, RNA at AG, backbone not given here) [compound 57]”?
Answer: IC50 [1, 4]: 99 ± 13 nM; Binding activity as determined using Biacore [2]: ++

Question: For “64 (rGfUfCrAfCrArGrAfUrArGrArGfUfUrArArArGfUrGrAfC) [compound 64]”, which IC50 [1, 3] is on record?
Answer: 20 ± 5 nM

Question: What about the “binding activity using Biacore” value [2] of the same molecule?
Answer: ++

Question: Which results are given for “63 (rGfCfUrAfCrArGrAfUrArGrArGfUfUrArArArGfUrArGfC) [compound 63]”?
Answer: IC50 [1, 3]: 23 ± 3 nM; binding activity using Biacore [2]: ++

Question: For “51 (CGUUACAUAAUGUAUAUACCAGGGUAACUAAACAUAGAAGAGCGG; 2'-fluoro at CU, RNA at AG, backbone not given here) [compound 51]”, which IC50 [1, 4] is on record?
Answer: 24 ± 9 nM

Question: And the “Binding activity as determined using Biacore” value (from here on “Binding activity as determined”) [2]?
Answer: ++

Question: With “49 (GGUUCUACAGAUAGAGAUAAAGUAGAACC; 2'-fluoro at CU, RNA at AG, backbone not given here) [compound 49]” as the molecule, how does the IC50 [1, 4] read?
Answer: 117 ± 66 nM

Question: What about the “Binding activity as determined” value [2] of the same molecule?
Answer: ++

Question: What does the source list for “60 (GGGUUAGAUAGAGCUAAAAACCC; 2'-fluoro at CU, RNA at AG, backbone not given here) [compound 60]”?
Answer: IC50 [1, 3]: 26 ± 6 nM; binding activity using Biacore [2]: ++

Question: “68 (GGGUUAGAUAGUGUUAAAAACCC; listed as RNA, chemistry not fully specified) [compound 68]” was tested. Which IC50 [1, 3] did it give?
Answer: > 1000 nM

Question: What about the “binding activity using Biacore” value [2] of the same molecule?
Answer: +

B1: 6 (nucleic acid)
chain: rGrGrGrAfCrGrGfUrArGrGrArAfUfUfCfUrAfCrGrGfUfCfUrGfUrGfUrGrArArAfUfUrGrArArAfCrAfCrAfCrArArArGrArAfCrArAfUrArGrAfCrAfUrArGrArArGrArGfCrGrGfCfCrGfC
modifications: aptamer
Question: Which results are given for B1?
Answer: IC50 [1, 5]: 456 ± 261 nM; Binding activity as determined using Biacore (chymase): ++

B2: 33 (nucleic acid)
chain: rGrGrGrAfCrGrGfUrArGrGrArAfUfUfCfCfUrGfUfCfUfUfUfUfCfCfCrAfCrGfCrArAfCrArArAfUfUrAfCrArGrArGfCfUfUfUrGfCrArArArAfCrAfUrArGrArArGrArGfCrGrGfCfCrGfC
modifications: aptamer
Question: With B2 as the molecule, how does the IC50 [1, 5] read?
Answer: 145 ± 88 nM

Question: What about the “Binding activity as determined” value (chymase) of the same molecule?
Answer: +

B3: 5 (nucleic acid)
chain: rGrGrGrAfCrGrGfUrArGrGrArAfUfUfCfCfCrAfCfUfUrGfUfCfUfUfUrGrArGrGfCrArArGrArArAfUfUrGfUrAfUfUfCfCrGrArArGrArArGfCrAfUrArGrArArGrArGfCrGrGfCfCrGfC
modifications: aptamer
Question: Which results are given for B3?
Answer: IC50 [1, 5]: 80 ± 39 nM; Binding activity as determined using Biacore (chymase): ++

B4: 7 (nucleic acid)
chain: rGrGrGrAfCrGrGfUrArGrGrArAfUfUfCrAfCfCfUfUfUfCfCrArAfUfUrGfUrGrArArArGrArArAfCrAfCrArArArArArGrArArAfUrGrAfCrAfUfCrAfUrArGrArArGrArGfCrGrGfCfCrGfC
modifications: aptamer
Question: B4 was tested. Which IC50 [1, 5] did it give?
Answer: > 500 nM

Question: And the “Binding activity as determined” value (chymase)?
Answer: ++

B5: 32 (nucleic acid)
chain: rGrGrGrAfCrGrGfUrArGrGrArAfUfUfCrGfUfCfCfUfCrAfUrGfUfCfUrAfUfUfUfUrGfCrArGrAfUrArGrAfCfUfUrArArArGfCrArArAfCrAfUrArGrArArGrArGfCrGrGfCfCrGfC
Question: With B5 as the molecule, how does the IC50 [1, 5] read?
Answer: 235 ± 55 nM

Question: And the “Binding activity as determined” value (chymase)?
Answer: +

B6: 34 (nucleic acid)
chain: rGrGrGrAfCrGrGfUrArGrGrArAfUfUfCfUrGfCfCrGfCrArAfCfCfCrArAfUrGrArArArAfCrGrArArGrAfUrArGrArGrAfUrArArAfUfCrGrArAfCrAfUrArGrArArGrArGfCrGrGfCfCrGfC
modifications: aptamer
Question: What does the source list for B6?
Answer: IC50 [1, 5]: 137 ± 9 nM; Binding activity as determined using Biacore (chymase): +
